From US11975017B2, “Compositions comprising an RNA polymerase inhibitor and cyclodextrin for treating viral infections” (priority 2017, dated 2024)
Values after ≈ are worked out from the molar mass of the structure shown.

What was measured:
[1] = format: physicochemical; conditions: between pH 1 and 10; FIG. 2
Experimental: The stability of Compound 1 was determined by monitoring the concentration of Compound 1 in solution by liquid chromatography at various storage conditions. […] The solubility of Compound 1 between pH 1 and 10 was determined by quantitatively measuring the concentration of Compound 1 in solution at various pH conditions by liquid chromatography.

physchem = conditions: water

Structure (SMILES): CCC(CC)COC(=O)[C@H](C)N[P@](=O)(OC[C@H]1O[C@@](C#N)(c2ccc3c(N)ncnn23)[C@H](O)[C@@H]1O)Oc1ccccc1 [Compound 1, (S)-2-ethylbutyl 2-(((S)-(((2R,3S,4R,5R)-5-(4-aminopyrrolo[2,1-f][1,2,4]triazin-7-yl)-5-cyano-3,4-dihydroxytetrahydrofuran-2-yl)methoxy)(phenoxy)phosphoryl)amino)propanoate]
- solubility as a function of pH [1]: increases at or below pH 4
- solubility (physchem): ~30 µg/mL (≈ 49.8 µM)
